The results in this text go back to US12150998B2, “Bicyclic peptide ligands specific for P-selectin” (BicycleTx Limited, priority 2021, dated 2024).

Where two headings read alike, the source gives them in different places. Starred links: 1 amine or outer side, 2 acyl side, 3 side chain; linkers in the order of their positions; H or OH if unused. Positions of bridges follow the written chain, without caps; N, C: chain ends. Non-standard residues stand in square brackets, D forms with d. Residues, ends and D or L forms follow the SMILES beside them. Chains are numbered I, II in the order given. X3 = O=C(CCOCCN(CCOCCC(=O)NCCOCCOCCOCCOCCOCCOCCOCCOCCOCCOCCOCCOCCOCCOCCOCCOCCOCCOCCOCCOCCOCCOCCOCCn1cc(CCC(=O)[*:2])nn1)CCOCCC(=O)NCCOCCOCCOCCOCCOCCOCCOCCOCCOCCOCCOCCOCCOCCOCCOCCOCCOCCOCCOCCOCCOCCOCCOCCn1cc(CCC(=O)[*:3])nn1)NCCOCCOCCOCCOCCOCCOCCOCCOCCOCCOCCOCCOCCOCCOCCOCCOCCOCCOCCOCCOCCOCCOCCOCCn1cc(CCC(=O)[*:1])nn1; X4 = O=C(CCOCCN(CCOCCC(=O)NCCOCCOCCOCCOCCOCCOCCOCCOCCOCCOCCn1cc(CCC(=O)[*:2])nn1)CCOCCC(=O)NCCOCCOCCOCCOCCOCCOCCOCCOCCOCCOCCn1cc(CCC(=O)[*:3])nn1)NCCOCCOCCOCCOCCOCCOCCOCCOCCOCCOCCn1cc(CCC(=O)[*:1])nn1; TATA = O=C(CC[*:1])N1CN(C(=O)CC[*:2])CN(C(=O)CC[*:3])C1; X1 = O=C(C[*:1])N1CCN(C(=O)C[*:2])CCN(C(=O)C[*:3])CC1; 1Nal = N[C@@H](Cc1cccc2ccccc12)C(=O)O

In one assay the target is T1, human P-Selectin protein (Homo sapiens, UniProt P16109).
T1 sequence (P16109 42-830): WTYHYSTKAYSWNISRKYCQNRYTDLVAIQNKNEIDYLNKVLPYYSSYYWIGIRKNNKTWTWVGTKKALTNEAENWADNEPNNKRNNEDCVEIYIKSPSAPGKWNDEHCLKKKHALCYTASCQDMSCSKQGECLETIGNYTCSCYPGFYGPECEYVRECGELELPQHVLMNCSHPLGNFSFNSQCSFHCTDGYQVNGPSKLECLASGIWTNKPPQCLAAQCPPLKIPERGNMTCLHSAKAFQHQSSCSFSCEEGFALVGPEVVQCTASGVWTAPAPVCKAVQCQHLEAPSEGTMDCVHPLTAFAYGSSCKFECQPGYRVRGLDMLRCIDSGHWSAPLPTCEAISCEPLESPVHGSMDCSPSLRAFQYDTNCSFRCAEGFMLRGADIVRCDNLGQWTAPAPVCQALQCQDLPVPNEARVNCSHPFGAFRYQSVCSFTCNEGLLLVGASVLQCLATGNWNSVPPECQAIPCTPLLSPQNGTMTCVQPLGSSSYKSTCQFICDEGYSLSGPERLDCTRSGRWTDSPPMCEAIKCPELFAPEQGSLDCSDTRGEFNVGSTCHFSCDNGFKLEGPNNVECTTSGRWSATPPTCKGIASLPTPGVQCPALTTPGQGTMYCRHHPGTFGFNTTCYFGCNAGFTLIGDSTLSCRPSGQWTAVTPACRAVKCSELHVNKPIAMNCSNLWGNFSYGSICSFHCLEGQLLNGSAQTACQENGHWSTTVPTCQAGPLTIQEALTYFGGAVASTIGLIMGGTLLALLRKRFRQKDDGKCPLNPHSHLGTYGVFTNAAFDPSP
Kind of assay: SPR binding assay (Biacore). Conditions: recombinant biotinylated human P-Selectin, 25° C. As to the method: Biacore experiments were performed to determine ka (M−1s−1), kd (s−1), KD (nM) values of monomeric peptides binding to human Selectin proteins. Recombinant biotinylated human P-Selectin protein was used. For analysis of binding, either a Biacore 3000 or 5200 instrument was used with a CMS sensor chip (GE Healthcare). For sensor chip surface preparation, streptavidin was immobilized on the chip using standard amine-coupling chemistry at 25° C. with HBS-N (10 mM HEPES, 0.15 M NaCl, pH 7.4) as the running buffer. The carboxymethyl dextran surface was activated with a 12 min injection of a 1:1 ratio of 0.4 M 1-ethyl-3-(3-dim ethyl aminopropyl) carbodiimide hydrochloride (EDC)/0.1 M N-hydroxy succinimide (NHS) at a flow rate of 10 μl/min. For capture of streptavidin, protein was diluted to 0.2 mg/ml in 10 mM sodium acetate (pH 4.5) and captured by injecting 70 μl onto the activated chip surface. Residual activated groups were blocked with a 7 min injection of 1 M ethanolamine (pH 8.5). Biotinylated protein stock was diluted 1:100 in HBS-N and captured on one flow cell at 5 μl/min to a level of 1000-1500 RU. Buffer was changed to PBS/0.05% Tween 20 and a dilution series of the peptides was prepared in this buffer with a final DMSO concentration of 0.5%. The top concentration of the analyte varied from 200 nM to 50 μM; depending on predicted affinity of the interaction. In all cases a titration was performed with either seven 2-fold dilutions or five 3-fold dilutions. The SPR analysis was run at 25° C. with a flow rate of 50-80 μl/min with 60 seconds association and a suitable disassociation period (100-900 seconds). Data were corrected for DMSO excluded volume effects. All data were double-referenced for blank injections and reference surface using standard processing procedures and data processing and kinetic fitting were performed using Scrubber software, version 2.0c (BioLogic Software). Data were fitted using mass transport model allowing for mass transport effects where appropriate.
For orientation: Surface plasmon resonance follows binding to a sensor surface in real time, without labels.

The target in assay [1] is T2, P-Selectin:PSGL1 interaction (Homo sapiens, UniProt P16109).
T2 construct: host or cells: HL-60 cells (ATCC, CCL-240) supply the PSGL-1 partner endogenously
T2 sequence (P16109 42-771 limits assumed): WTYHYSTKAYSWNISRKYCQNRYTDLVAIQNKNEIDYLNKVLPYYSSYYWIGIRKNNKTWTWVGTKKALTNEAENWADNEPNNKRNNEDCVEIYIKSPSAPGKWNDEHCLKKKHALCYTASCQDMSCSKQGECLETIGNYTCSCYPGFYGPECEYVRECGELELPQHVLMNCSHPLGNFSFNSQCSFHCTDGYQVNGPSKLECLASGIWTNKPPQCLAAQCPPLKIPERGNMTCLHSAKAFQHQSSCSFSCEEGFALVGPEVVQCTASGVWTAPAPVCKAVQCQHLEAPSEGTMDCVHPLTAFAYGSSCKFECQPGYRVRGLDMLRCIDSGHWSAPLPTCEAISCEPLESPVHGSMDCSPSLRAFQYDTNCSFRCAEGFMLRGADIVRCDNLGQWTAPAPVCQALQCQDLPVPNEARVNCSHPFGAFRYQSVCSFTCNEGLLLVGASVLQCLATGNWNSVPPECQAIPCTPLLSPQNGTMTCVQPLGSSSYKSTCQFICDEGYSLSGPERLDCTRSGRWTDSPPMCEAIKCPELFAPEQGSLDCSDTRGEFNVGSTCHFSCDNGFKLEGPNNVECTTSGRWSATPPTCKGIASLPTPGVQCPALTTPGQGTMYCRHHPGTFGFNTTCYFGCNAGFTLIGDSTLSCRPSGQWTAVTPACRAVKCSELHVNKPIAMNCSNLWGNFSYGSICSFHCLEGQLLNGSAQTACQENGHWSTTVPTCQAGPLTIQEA
In words: Receptor ligand inhibition assay (P-Selectin binding to HL-60 cells). It is filed as cell-based. Conditions: geomean of n=3. Here is the method:
Bicycle test samples, SelG1 (Crizanlizumab) were serially diluted maintaining 0.5% DMSO in assay buffer (25 mM HEPES, 121 mM NaCl, 5.4 mM KCl, 0.8 mM MgCl2, 1.8 mM CaCl2), 6 mM […], 5.5 mM glucose, 1% BSA, pH7.4) and transferred to 384 well clear bottom plates (Corning, 3712) with a final volume of 6 μL. […], of P-Selectin in imaging buffer (25 mM HEPES, 121 mM NaCl, 5.4 mM KCl, 0.8 mM MgCl2, 1.8 mM CaCl2), 6 mM […], 5.5 mM glucose, pH7.4) was added to give a 5 nM final concentration and incubated at room temperature for 15 minutes. HL-60 cells (ATCC, CCL-240) mixed with 1 μg/mL far red labelled wheat germ agglutinin (WGA, ThermoFisher W21404) and 1 μg/mL AlexaFluor 488-streptavidin (Invitrogen S11223) were added to the plate and incubated for 2 hours at room temperature in the absence of light. Staining and antibody binding were quantified by simultaneously scanning the microplates with 488 nm and 640 nm lasers on a mirrorball microplate cytometer, AF488 on FL2 triggering on AF647-WGA on FL4. Data was analysed in Dotmatics, using a four parameter logistic fit to generate IC50 values and % response. Percent inhibition was calculated using 100−% response at top concentration.

[2] abbreviates: read-out: Affinity KD determined by SPR.

The Kd is the concentration at which binding is half-saturated. Turning to `CSCC[C@@H]1NC(=O)[C@H](Cc2ccc(O)cc2)NC(=O)[C@@H](NC(=O)[C@H](C)NC(C)=O)CSCCC(=O)N2CN3CN(C2)C(=O)CCSC[C@H](NC(=O)[C@H](Cc2c[nH]c4ccccc24)NC(=O)[C@H](CCC(=O)O)NC1=O)C(=O)N[C@@H](CC(=O)O)C(=O)N[C@@H](C(C)C)C(=O)N[C@@H]([C@@H](C)O)C(=O)N[C@@H](CC(=O)O)C(=O)N[C@@H](Cc1ccc(O)cc1)C(=O)NCC(=O)N[C@H](C(=O)N[C@@H](CCCCNC(=O)CCc1cn(CCOCCOCCOCCOCCOCCOCCOCCOCCOCCOCCOCCOCCOCCOCCOCCOCCOCCOCCOCCOCCOCCOCCOCCNC(=O)CCOCC(COCCC(=O)NCCOCCOCCOCCOCCOCCOCCOCCOCCOCCOCCOCCOCCOCCOCCOCCOCCOCCOCCOCCOCCOCCOCCOCCn2cc(CCC(=O)NCCCC[C@H](NC(=O)[C@@H]4CSCCC(=O)N5CN6CN(C5)C(=O)CCSC[C@H](NC(=O)[C@H](Cc5c[nH]c7ccccc57)NC(=O)[C@H](CCC(=O)O)NC(=O)[C@H](CCSC)NC(=O)[C@H](Cc5ccc(O)cc5)NC(=O)[C@@H](NC(=O)[C@H](C)NC(C)=O)CSCCC6=O)C(=O)N[C@@H](CC(=O)O)C(=O)N[C@@H](C(C)C)C(=O)N[C@@H]([C@@H](C)O)C(=O)N[C@@H](CC(=O)O)C(=O)N[C@@H](Cc5ccc(O)cc5)C(=O)NCC(=O)N4)C(N)=O)nn2)(COCCC(=O)NCCOCCOCCOCCOCCOCCOCCOCCOCCOCCOCCOCCOCCOCCOCCOCCOCCOCCOCCOCCOCCOCCOCCOCCn2cc(CCC(=O)NCCCC[C@H](NC(=O)[C@@H]4CSCCC(=O)N5CN6CN(C5)C(=O)CCSC[C@H](NC(=O)[C@H](Cc5c[nH]c7ccccc57)NC(=O)[C@H](CCC(=O)O)NC(=O)[C@H](CCSC)NC(=O)[C@H](Cc5ccc(O)cc5)NC(=O)[C@@H](NC(=O)[C@H](C)NC(C)=O)CSCCC6=O)C(=O)N[C@@H](CC(=O)O)C(=O)N[C@@H](C(C)C)C(=O)N[C@@H]([C@@H](C)O)C(=O)N[C@@H](CC(=O)O)C(=O)N[C@@H](Cc5ccc(O)cc5)C(=O)NCC(=O)N4)C(N)=O)nn2)COCCC(=O)NCCOCCOCCOCCOCCOCCOCCOCCOCCOCCOCCOCCOCCOCCOCCOCCOCCOCCOCCOCCOCCOCCOCCOCCn2cc(CCC(=O)NCCCC[C@H](NC(=O)[C@@H]4CSCCC(=O)N5CN6CN(C5)C(=O)CCSC[C@H](NC(=O)[C@H](Cc5c[nH]c7ccccc57)NC(=O)[C@H](CCC(=O)O)NC(=O)[C@H](CCSC)NC(=O)[C@H](Cc5ccc(O)cc5)NC(=O)[C@@H](NC(=O)[C@H](C)NC(C)=O)CSCCC6=O)C(=O)N[C@@H](CC(=O)O)C(=O)N[C@@H](C(C)C)C(=O)N[C@@H]([C@@H](C)O)C(=O)N[C@@H](CC(=O)O)C(=O)N[C@@H](Cc5ccc(O)cc5)C(=O)NCC(=O)N4)C(N)=O)nn2)nn1)C(N)=O)CSCCC3=O` [BCY5465], the Kd at human P-Selectin protein (Affinity KD determined by SPR) was 140 nM. In general, IC50 refers to the concentration that inhibits the measured activity by half. The term Inhibition denotes the relative decrease from the control value, in per cent. A low value points to a response near the control. For `CC(C)C[C@@H]1NC(=O)[C@H](CO)NC(=O)[C@@H]2CCCN2C(=O)[C@H](C(C)C)NC(=O)[C@H](CC(=O)O)NC(=O)[C@@H]2CSCC(=O)N3CCN(CCN(CC3)C(=O)CSC[C@@H](C(=O)N[C@@H](C)C(N)=O)NC(=O)[C@@H]3CCCN3C1=O)C(=O)CSC[C@H](NC(=O)[C@H](C)N)C(=O)N[C@@H](CC(=O)O)C(=O)N[C@@H](C)C(=O)N[C@@H](CC(=O)O)C(=O)N[C@@H](Cc1cccc3ccccc13)C(=O)N2` [BCY12027, A-(SEQ ID NO: 2)-A] (H-ACDAD[1Nal]CDVPSLPCA-NH2; linker 2-7-14 via X1; N-terminus assumed), at human P-Selectin protein (setting [2]), the Kd is below 10 nM. Further, in assay [1] (5 nM P-Selectin, HL-60 cells, read-out: IC50), the IC50 was above 36.8 nM. Besides, the “Inhibition at top concentration” value in assay [1] (100−% response at top concentration) stood at 36%. Regarding “I: Ac-ACYMEWCDVTDYGCK-NH2 / II: Ac-ACYMEWCDVTDYGCK-NH2 / III: Ac-ACYMEWCDVTDYGCK-NH2 (linker I:2-I:7-I:14, II:2-II:7-II:14, III:2-III:7-III:14 via TATA; linker I:15-II:15-III:15 via X3) [BCY5461]”, the Kd on human P-Selectin protein (Affinity KD determined by SPR) was 230 nM. Regarding “I: Ac-ACYMEWCDVTDYGCK-NH2 / II: Ac-ACYMEWCDVTDYGCK-NH2 / III: Ac-ACYMEWCDVTDYGCK-NH2 (linker I:2-I:7-I:14, II:2-II:7-II:14, III:2-III:7-III:14 via TATA; linker I:15-II:15-III:15 via X4) [BCY5460]”, the Kd on human P-Selectin protein (setting [2]) came to 239 nM.
